The values that follow are results of earlier work, collected in patent US20070128633A1, “Cell-free protein expression systems and methods of use thereof” (ChemBridge Research Laboratories, Inc., priority 2005, published 2007).

In general, Kd refers to the concentration at which binding is half-saturated.

One series concerns the target streptavidin (Streptomyces avidinii, UniProt P22629). Conditions: tag fused to the C- or N-termini of a recombinant protein; Skerra and Schmidt (2000).
Series [1] has as its target KIT active site mutation D816V (Homo sapiens, UniProt P10721, D816V). The following applies: sporadic adult human mastocytosis, Ma et al. (2002).
In series [2] the test system is KIT variants containing 2 out of these 6 mutations. Conditions: KIT variants with 2 of 6 catalytic domain point mutations found in seminomas; Kemmer et al. (2004).

KIT active site mutation D816V, sequence (P10721 26-976 D816V): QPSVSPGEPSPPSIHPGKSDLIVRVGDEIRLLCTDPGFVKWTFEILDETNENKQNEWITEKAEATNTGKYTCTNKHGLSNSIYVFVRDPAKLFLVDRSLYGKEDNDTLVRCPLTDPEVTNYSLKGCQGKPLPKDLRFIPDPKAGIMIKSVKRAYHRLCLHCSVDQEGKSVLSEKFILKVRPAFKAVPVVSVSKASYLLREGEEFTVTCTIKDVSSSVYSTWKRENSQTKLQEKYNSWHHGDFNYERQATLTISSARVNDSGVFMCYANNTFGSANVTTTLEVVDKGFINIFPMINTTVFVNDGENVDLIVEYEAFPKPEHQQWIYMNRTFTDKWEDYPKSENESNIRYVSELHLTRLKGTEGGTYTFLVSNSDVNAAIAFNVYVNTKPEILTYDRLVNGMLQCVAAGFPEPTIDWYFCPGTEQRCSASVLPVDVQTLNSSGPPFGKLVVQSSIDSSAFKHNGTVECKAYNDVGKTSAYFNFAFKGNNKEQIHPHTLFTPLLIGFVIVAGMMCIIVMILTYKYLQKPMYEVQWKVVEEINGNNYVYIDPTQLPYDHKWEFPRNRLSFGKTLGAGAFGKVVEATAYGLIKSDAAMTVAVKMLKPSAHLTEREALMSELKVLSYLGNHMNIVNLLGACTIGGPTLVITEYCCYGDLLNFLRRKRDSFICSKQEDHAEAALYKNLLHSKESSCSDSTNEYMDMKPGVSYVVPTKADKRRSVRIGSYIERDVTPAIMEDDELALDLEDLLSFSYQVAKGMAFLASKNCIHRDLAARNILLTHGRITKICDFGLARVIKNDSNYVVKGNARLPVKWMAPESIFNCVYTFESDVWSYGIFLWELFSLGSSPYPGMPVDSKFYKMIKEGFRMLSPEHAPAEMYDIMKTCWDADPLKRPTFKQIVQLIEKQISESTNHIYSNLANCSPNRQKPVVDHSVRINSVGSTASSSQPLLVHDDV
streptavidin, sequence (P22629 25-183, species assumed): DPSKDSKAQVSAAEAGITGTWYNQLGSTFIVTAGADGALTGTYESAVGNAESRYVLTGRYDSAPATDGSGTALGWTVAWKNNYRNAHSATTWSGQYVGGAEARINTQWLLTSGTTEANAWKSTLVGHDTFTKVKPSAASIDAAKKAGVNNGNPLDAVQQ

As for WSHPQFEK [Strep-Tag II], the Kd on streptavidin is 18 µM. On to `Cc1ccc(NC(=O)c2ccc(CN3CCN(C)CC3)cc2)cc1Nc1nccc(-c2cccnc2)n1` [imatinib], for which, in series [1], the “response to imatinib treatment” value is recorded as “resistance”. Moreover, the “inhibition of KIT variants” value in series [2] is reported as “not inhibited”.
